In US20260014147A1, “STAT6 DEGRADERS” (Gilead Sciences, Inc., priority 2024, published 2026):

How the values were obtained:
[1] = system: Eotaxin-3 (CCL26) release in human whole blood stimulated with IL-4; test: Human Whole Blood Eotaxin-3 Assay (IL-4 stimulated, inhibition of eotaxin-3 release); assay type: cell-based; conditions: EC50 provided for test compounds with >80% Emax, geometric mean across assay runs and batches
Experimental: This was a human whole blood assay using recombinant human Interleukin 4 to stimulate the blood and measuring the ability of the test compounds to inhibit eotaxin-3 release. The biological activities of the test compounds have been tested in human whole blood stimulated with IL-4 measuring Eotaxin-3 release. The test compounds were added to 384 well clear flat-bottom plate in a 4-fold serial dilution in triplicates using a liquid handler. Human whole blood stabilized in lithium-heparin tubes was added in a volume of 65 uL per well, resulting in a final DMSO concentration of 0.5%. The plate is incubated for 2 h at 37° C. under 5% CO2/95% air. Subsequently, 5 μL of recombinant human IL-4 (R&D Systems, cat #204-ILB) was added to the wells to a final concentration of 400 pM. The plate was incubated for 48 h at 37° C. under 5% CO2/95% air. The plate was spun down for 10 minutes at 500×g and 20 uL supernatant was harvested and transferred to a 384 well v-bottom plate using a liquid handler and stored at −20° C. until further analysis. 10 uL supernatant was used to measure the level of Eotaxin-3 (CCL26) using Human Eotaxin-3 MSD kit from Mesocsale (Cat #K251UEK-4). The assay was performed according to the manufacture instructions.
The data from the human whole blood eotaxin-3 assay is shown below for Examples 2q11, 2110, and 2c49 (where the effect in % is plotted against the test concentration in M on a log-scale).

[2] = target: T1, STAT6 (endogenous, HiBiT-tagged) in HeLa LgBiT clone 4.14 cells (Homo sapiens, UniProt P42226); test: STAT6 Degrader Assay (HiBiT based, HeLa LgBiT clone 4.14 cells, luminescence, DC50); assay type: cell-based; conditions: geometric mean; for DC50: DC50 provided for test compounds with >80% Emax, read-out: STAT6 degradation DC50; for Emax: Emax provided for test compounds with <80% Emax (and 2c15), read-out: STAT6 degradation Emax
T1 construct: These cells express endogenous STAT6; host or cells: HeLa LgBiT clone 4.14
T1 sequence (P42226 1-847): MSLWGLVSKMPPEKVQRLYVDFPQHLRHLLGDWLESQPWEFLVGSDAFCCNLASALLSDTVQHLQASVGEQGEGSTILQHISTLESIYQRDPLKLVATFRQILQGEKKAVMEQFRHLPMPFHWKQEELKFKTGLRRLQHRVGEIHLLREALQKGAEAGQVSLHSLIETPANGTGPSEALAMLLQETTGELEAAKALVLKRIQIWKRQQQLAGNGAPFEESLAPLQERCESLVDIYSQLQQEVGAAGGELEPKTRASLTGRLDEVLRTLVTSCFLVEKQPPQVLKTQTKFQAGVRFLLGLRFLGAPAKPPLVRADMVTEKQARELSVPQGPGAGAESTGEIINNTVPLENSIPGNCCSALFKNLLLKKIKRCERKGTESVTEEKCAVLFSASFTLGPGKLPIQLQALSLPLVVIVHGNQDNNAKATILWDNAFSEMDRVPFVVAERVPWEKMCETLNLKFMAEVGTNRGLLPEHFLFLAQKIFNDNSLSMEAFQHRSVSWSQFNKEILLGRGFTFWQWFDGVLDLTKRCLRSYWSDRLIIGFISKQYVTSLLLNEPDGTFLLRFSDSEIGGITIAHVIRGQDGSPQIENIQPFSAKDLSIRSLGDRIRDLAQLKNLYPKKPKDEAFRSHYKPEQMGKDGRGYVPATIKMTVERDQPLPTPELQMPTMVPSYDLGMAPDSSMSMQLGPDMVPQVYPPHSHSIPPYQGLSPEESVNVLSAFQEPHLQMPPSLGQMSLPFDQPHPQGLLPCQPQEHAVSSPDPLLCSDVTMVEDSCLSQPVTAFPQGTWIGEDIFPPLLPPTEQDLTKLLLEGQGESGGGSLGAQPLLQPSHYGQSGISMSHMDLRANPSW
How it was run: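 Remaining STAT6 is read as NanoBiT luminescence after 0.5 h with Nano-Glo, in HeLa LgBiT clone 4.14 cells expressing endogenous HiBiT-tagged STAT6, following 4-24 h compound incubation at 37 °C. Full degradation is set by 50 µM terfenadine, which kills the cells; degradation plotted against log compound concentration.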

Row | SMILES | EC50 ([1]; Homo sapiens) | DC50 [2] | Emax [2] | EC50 [1]
1 | COCc1nc2cc(-c3ccnc4c3cc([C@H](C)N3CCC(c5ccc(C(=O)N6CCC(CN7CCN(c8ncc(NC9CCC(=O)NC9=O)cc8F)C[C@H]7C)CC6)cc5)CC3)n4C)ccc2[nH]1 (stereo partly shown) [Example 3t5] | 59.5 nM | 6 nM | – | –
2 | C[C@@H](c1cc2c(-c3ccc(N)nc3)ccnc2n1C)N1CCC(c2ccc(C(=O)N3CCC(CN4CCN(c5ccc(NC6CCC(=O)NC6=O)c(F)n5)CC4)CC3)cc2)CC1 (stereo partly drawn) [Example 2n9, 3-((6-(4-((1-(4-(1-((S)-1-(4-(6-aminopyridin-3-yl)-1-methyl-1H-pyrrolo[2,3-b]pyridin-2-yl)-ethyl)-piperidin-4-yl)benzoyl)piperidin-4-yl)methyl)piperazin-1-yl)-2-fluoropyridin-3-yl)amino)piperidine-2,6-dione] | 141 nM | – | 70 to 80% | –
3 | C[C@@H](c1cc2c(-c3ccc(N)cn3)ccnc2n1C)N1CCC(c2ccc(C(=O)N3CCC(CN4CCN(c5ccc(NC6CCC(=O)NC6=O)cc5F)CC4)CC3)cc2)CC1 (stereo partly drawn) [Example 2c33, 3-((4-(4-((1-(4-(1-((S)-1-(4-(5-aminopyridin-2-yl)-1-methyl-1H-pyrrolo[2,3-b]pyridin-2-yl)ethyl)-piperidin-4-yl)benzoyl)piperidin-4-yl)methyl)piperazin-1-yl)-3-fluorophenyl)amino)piperidine-2,6-dione] | 136 nM | 22.5 nM | – | –
4 | C[C@@H](c1cc2c(-c3ccc(N)nc3)ccnc2n1C)N1CCC(c2ccc(C(=O)N3CCC(CN4CCN(c5ccc(N[C@H]6CCC(=O)NC6=O)cc5F)CC4)CC3)cc2)CC1 (single isomer, unassigned) [Example 2c20] | – | 9.6 nM | – | 82.8 nM
5 | C[C@@H](c1cc2c(-c3ccc(N)nc3)ccnc2n1C)N1CCC(c2ccc(C(=O)N3CCn4nc(CN5CCC(c6ccc(NC7CCC(=O)NC7=O)cc6F)C(F)(F)C5)cc4C3)cc2)CC1 (stereo partly drawn) [Example 2q9, 3-((4-(1-((5-(4-(1-((S)-1-(4-(6-aminopyridin-3-yl)-1-methyl-1H-pyrrolo[2,3-b]pyridin-2-yl)-ethyl)piperidin-4-yl)benzoyl)-4,5,6,7-tetrahydropyrazolo[1,5-a]pyrazin-2-yl)methyl)-3,3-difluoro-piperidin-4-yl)-3-fluorophenyl)amino)piperidine-2,6-dione] | 26.7 nM | 2.9 nM | – | –
6 | C[C@@H](c1cc2c(-c3ccc(N)nc3)ccnc2n1C)N1CCC(c2ccc(C(=O)N3CCn4nc(CN5CCC(c6ccc(N[C@@H]7CCC(=O)NC7=O)cc6F)CC5)cc4C3)cc2)CC1 (single isomer, unassigned) [Example 2q10] | 3.2 nM | 1 nM | – | –
7 | Cn1c(CN2CCC(c3ccc(C(=O)N4CCn5nc(CN6CCC(c7ccc(NC8CCC(=O)NC8=O)cc7F)CC6)cc5C4)cc3)CC2)cc2c(-c3ccc4[nH]ncc4c3)ccnc21 (stereo not shown) [Example 2q3, 3-((4-(1-((5-(4-(1-((4-(1H-indazol-5-yl)-1-methyl-1H-pyrrolo[2,3-b]pyridin-2-yl)methyl)-piperidin-4-yl)benzoyl)-4,5,6,7-tetrahydropyrazolo[1,5-a]pyrazin-2-yl)methyl)piperidin-4-yl)-3-fluorophenyl)amino)piperidine-2,6-dione] | 11.3 nM | 2.7 nM | – | –
8 | COc1nc(N)ccc1-c1ccnc2c1cc([C@H](C)N1CCC(c3ccc(C(=O)N4CCC(CN5CCN(c6ccc(NC7CCC(=O)NC7=O)cc6F)CC5)CC4)cc3)CC1)n2C (stereo partly drawn) [Example 2c32, 3-((4-(4-((1-(4-(1-((S)-1-(4-(6-amino-2-methoxypyridin-3-yl)-1-methyl-1H-pyrrolo[2,3-b]pyridin-2-yl)ethyl)piperidin-4-yl)benzoyl)piperidin-4-yl)methyl)piperazin-1-yl)-3-fluorophenyl)amino)-piperidine-2,6-dione] | 67.9 nM | 16.5 nM | – | –
9 | COCc1nc2cc(-c3ccnc4c3cc([C@H](C)N3CCC(c5ccc(C(=O)N6CCC(CN7CCN(c8ccc(N[C@H]9CCC(=O)NC9=O)cc8F)C[C@H]7C)CC6)cc5)CC3)n4C)ccc2[nH]1 (single isomer, unassigned) [Example 2f12] | 19.7 nM | 4.1 nM | – | –
10 | C[C@@H](c1cc2c(-c3ncc(N)cc3F)ccnc2n1C)N1CCC(c2ccc(C(=O)N3CCC(CN4CCN(c5ccc(NC6CCC(=O)NC6=O)cc5F)CC4)CC3)cc2)CC1 (stereo partly drawn) [Example 2c30, 3-((4-(4-((1-(4-(1-((S)-1-(4-(5-amino-3-fluoropyridin-2-yl)-1-methyl-1H-pyrrolo[2,3-b]pyridin-2-yl)ethyl)piperidin-4-yl)benzoyl)piperidin-4-yl)methyl)piperazin-1-yl)-3-fluorophenyl)-amino)piperidine-2,6-dione] | 507 nM | – | 30 to 40% | –
11 | C[C@@H](c1cc2c(-c3ccc(N)nc3)ccnc2n1C)N1CCC(c2ccc(C(=O)N3CCC(CN4CCN(c5ccc(NC6CCC(=O)NC6=O)cc5F)CC4)CC3)cc2)CC1 (stereo partly drawn) [Example 2c14, 3-((4-(4-((1-(4-(1-((S)-1-(4-(6-aminopyridin-3-yl)-1-methyl-1H-pyrrolo[2,3-b]pyridin-2-yl)ethyl)-piperidin-4-yl)benzoyl)piperidin-4-yl)methyl)piperazin-1-yl)-3-fluorophenyl)amino)piperidine-2,6-dione] | 65 nM | 6.6 nM | – | –
12 | C[C@H]1CN(c2ncc(NC3CCC(=O)NC3=O)cc2F)CCN1CC1CCN(C(=O)c2ccc(C3CCN([C@@H](C)c4cc5c(-c6ccc(N)nc6)ccnc5n4C)CC3)cc2)CC1 (stereo partly drawn) [Example 2c55, 3-((6-((S)-4-((1-(4-(1-((S)-1-(4-(6-aminopyridin-3-yl)-1-methyl-1H-pyrrolo[2,3-b]pyridin-2-yl)ethyl)piperidin-4-yl)benzoyl)piperidin-4-yl)methyl)-3-methylpiperazin-1-yl)-5-fluoropyridin-3-yl)amino)piperidine-2,6-dione] | 247 nM | – | – | –
13 | COCc1nc2cc(-c3ccnc4c3cc(CN3CCC(c5ccc(C(=O)N6CCn7nc(CN8CCC(c9ncc(NC%10CCC(=O)NC%10=O)cc9F)CC8)cc7C6)cc5)CC3)n4C)ccc2[nH]1 (stereo not shown) [Example 2q8, 3-((5-fluoro-6-(1-((5-(4-(1-((4-(2-(methoxymethyl)-1H-benzo[d]imidazol-5-yl)-1-methyl-1H-pyrrolo[2,3-b]pyridin-2-yl)methyl)piperidin-4-yl)benzoyl)-4,5,6,7-tetrahydropyrazolo[1,5-a]pyrazin-2-yl)methyl)piperidin-4-yl)pyridin-3-yl)amino)piperidine-2,6-dione] | 25.1 nM | – | – | –
14 | CNc1ccc(-c2ccnc3c2cc([C@H](C)N2CC=C(c4c(C)cc(C(=O)N5CCn6nc(CN7CCC(c8ccc(NC9CCC(=O)NC9=O)c(OC)c8)CC7)cc6C5)cc4F)CC2)n3C)cn1 (stereo partly drawn) [Example 2c49, 3-((4-(1-((5-(3-fluoro-5-methyl-4-(1-((S)-1-(1-methyl-4-(6-(methylamino)pyridin-3-yl)-1H-pyrrolo[2,3-b]pyridin-2-yl)ethyl)-1,2,3,6-tetrahydropyridin-4-yl)benzoyl)-4,5,6,7-tetrahydropyrazolo[1,5-a]pyrazin-2-yl)methyl)piperidin-4-yl)-2-methoxyphenyl)amino)piperidine-2,6-dione] | 3 nM | – | – | –
